Experimental findings from ChEMBL document CHEMBL1921728, “β-PNA: peptide nucleic acid (PNA) with a chiral center at the β-position of the PNA backbone” (Bioorg Med Chem Lett, 2011) are described below.

Some results are limits rather than exact numbers.

The nature of data set [1]: Solubility of the compound in water. Format: physicochemical.
For data set [2], the system named is Nucleic Acid. Briefly: Binding affinity to 5'-AGTGATCTAC-3' DNA assessed as melting temperature at 5 uM at pH 7.4 by thermal denaturation assay. Format: nucleic-acid assay.

Regarding `Cc1cn(CC(=O)N(CCNC(=O)CN(CCNC(=O)CN(CCNC(=O)CN(CCNC(=O)CN(CCNC(=O)CN(CCN)C(=O)Cn2cnc3c(=O)[nH]c(N)nc32)C(=O)Cn2cc(C)c(=O)[nH]c2=O)C(=O)Cn2cnc3c(N)ncnc32)C(=O)Cn2cnc3c(=O)[nH]c(N)nc32)C(=O)Cn2cnc3c(N)ncnc32)CC(=O)NCCN(CC(=O)NCCN(CC(=O)NCCN(CC(=O)NCCN(CC(=O)N[C@@H](CCCCN)C(N)=O)C(=O)Cn2cc(C)c(=O)[nH]c2=O)C(=O)Cn2ccc(N)nc2=O)C(=O)Cn2cnc3c(N)ncnc32)C(=O)Cn2ccc(N)nc2=O)c(=O)[nH]c1=O`, in data set [1], the solubility (in general, the concentration that dissolves in the medium under given conditions) was over 500 µM. Further, the Tm (commonly the temperature at the midpoint of the melting transition) in data set [2] stood at 51.4 °C. The matching figures for `Cc1cn(CC(=O)N(CC(=O)NCCN(CC(=O)NCCN(CC(=O)NCCN(CC(=O)NC[C@H](C)N(CC(=O)N[C@@H](CCCCN)C(N)=O)C(=O)Cn2cc(C)c(=O)[nH]c2=O)C(=O)Cn2ccc(N)nc2=O)C(=O)Cn2cnc3c(N)ncnc32)C(=O)Cn2ccc(N)nc2=O)[C@@H](C)CNC(=O)CN(CCNC(=O)CN(CCNC(=O)CN(CCNC(=O)CN(C(=O)Cn2cc(C)c(=O)[nH]c2=O)[C@@H](C)CNC(=O)CN(CCN)C(=O)Cn2cnc3c(=O)[nH]c(N)nc32)C(=O)Cn2cnc3c(N)ncnc32)C(=O)Cn2cnc3c(=O)[nH]c(N)nc32)C(=O)Cn2cnc3c(N)ncnc32)c(=O)[nH]c1=O`: over 500 µM and 51 °C.

Compound `Cc1cn(CC(=O)N(CC(=O)NCCN(CC(=O)NCCN(CC(=O)NCCN(CC(=O)NC[C@@H](C)N(CC(=O)N[C@H](CCCCN)C(N)=O)C(=O)Cn2cc(C)c(=O)[nH]c2=O)C(=O)Cn2ccc(N)nc2=O)C(=O)Cn2cnc3c(N)ncnc32)C(=O)Cn2ccc(N)nc2=O)[C@H](C)CNC(=O)CN(CCNC(=O)CN(CCNC(=O)CN(CCNC(=O)CN(C(=O)Cn2cc(C)c(=O)[nH]c2=O)[C@H](C)CNC(=O)CN(CCN)C(=O)Cn2cnc3c(=O)[nH]c(N)nc32)C(=O)Cn2cnc3c(N)ncnc32)C(=O)Cn2cnc3c(=O)[nH]c(N)nc32)C(=O)Cn2cnc3c(N)ncnc32)c(=O)[nH]c1=O` showed a solubility in data set [1] of over 500 µM.
